Measured values: US20210369787A1, “ADIPOCYTE MEDIATED DELIVERY OF ANTICANCER THERAPEUTICS” (NORTH CAROLINA STATE UNIVERSITY, priority 2018, published 2021)

Columns and labels:
[1] = molecular target: FABP4 (Homo sapiens, UniProt P15090); assay: Fluorescence polarization binding of Dox or pDox to FABP4
Method: Fluorescence polarization was measured using QuantaMaster 40 UV/VIS Steady State Spectrofluorometer (Photon Technology International). The dissociation constant (Kd) was calculated for each by fitting the observed polarization ([mP]) to a general equation for two state binding as previously described.2

[2] = system: 3T3-L1 cell-differentiated adipocytes; assay: Lipid accumulation in adipocytes, Oil Red O staining; format: cell-based; details: for lipid accumulation in adipocytes: added during 3T3-L1 differentiation, oil red staining
Method: Lipid accumulation in adipocytes was evaluated by Oil Red 0 staining and quantified by optical density measurement at 540 nm. Preadipocytes were cultured, differentiated, and drug encapsulated in 6-well transwell insert, and co-cultured with 5*10^5 pre-cultured B16F10 or fibroblasts in 6 well plate to determine drug release profiles, which was calculated according to drug amount remained in adipocytes. Concentration of free fatty acid in co-cultured medium was measured using Free Fatty Acid Quantitation Kit (Sigma-Aldrich, catalog no. MAK044). […] Then, 100 μL extraction solution (0.75 M HCl in isopropanol) was added and incubated at −20° C. overnight. The fluorescence of supernatant at 498(excitation)/591(emission) nm was measured after centrifugation at 20000 g for 15 min. The maintenance medium was changed three to four times for animal work.

[3] = system: FABP4; assay: FABP4 amount in B16F10 cells after transwell co-culture, Western blot; format: cell-based, mouse
Method: (§1) For Western blot, flow cytometry, and adipokine profiling (R&D Systems catalog no. ARY013), 6 well transwell system was used with cancer cells cultured in the transwell insert and adipocytes in the bottom. Cells or medium were analyzed after co-culturing for 72 h. To determine the role of FABP4 during the crosstalk, 30 μM BMS309403 was added in the medium to block FABP4. Antibodies used for Western blot included β-actin (catalog no. sc-47778, Santa Cruz), FABP4 (catalog no. 701158, Thermo Fisher), PD-L1 (catalog no. ab205921, Abcam). PE channel was used to determine pDox fluorescence in adipocytes and cancer cells.

[4] = system: B16F10 cells; assay: pDox uptake and transport from adipocytes to B16F10 in transwell, flow cytometry; format: cell-based, mouse
Method: as §1

[5] = system: PD-L1; assay: PD-L1 expression of B16F10 in transwell system, Western blot; format: cell-based, mouse
Method: as §1

[6] = system: B16F10 cells; assay: Transwell co-culture of loaded adipocytes with B16F10, MTT; format: cell-based, mouse
Method: Cytotoxicity of drug and fatty acid was determined by MTT assay in 96-well plate after 48 h. Tumor cell killing or promoting effect of drug or fatty acid loaded adipocytes was determined in a transwell system where adipocytes were seeded in the 24 well plate and tumor cells grew in the transwell insert. After culturing for 72 h, cell proliferation of cancer cells in the transwell insert was determined by MTT assay.
as §1

Chain of FABP4 (Homo sapiens, UniProt P15090) (P15090 whole entry, species assumed): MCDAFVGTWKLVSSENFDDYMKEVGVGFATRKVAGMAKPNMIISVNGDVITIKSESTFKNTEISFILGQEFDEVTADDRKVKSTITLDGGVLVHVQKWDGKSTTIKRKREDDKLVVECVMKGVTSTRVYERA

Row | SMILES | specific binding to FABP4 [1] | lipid accumulation in adipocytes [2] | effect on inhibition of lipid droplet formation by Dox and pDox ([2]; RA added during differentiation) | effect on adipocyte-induced rise of FABP4 in B16F10 cells [3] | effect on uptake of pDox in adipocytes ([4]; during pDox absorption) | effect on RA@adipocyte-promoted pDox uptake ([4]; transwell co-culture) | effect on transportation of pDox from adipocytes to B16F10 cells ([4]; transwell, flow cytometry) | effect on PD-L1 suppression by RA@adipocytes and CLA@adipocyte [5] | effect on cytotoxicity of pDox from adipocytes to B16F10 cells ([6]; BMS309403 added to transwell medium (30 μM)) | effect on cell killing by pDox+RA@adipocytes ([6]; FABP4 inhibitor in transwell medium)
1 | COc1cccc2c1C(=O)c1c(O)c3c(c(O)c1C2=O)C[C@@](O)(C(=O)CO)C[C@@H]3O[C@H]1C[C@H](N)[C@H](O)[C@H](C)O1 [Dox, doxorubicin] | almost no specific binding | significantly inhibited | – | – | – | – | – | – | – | –
2 | CCCCCC/C=C/C=C\CCCCCCCC(=O)O [RA, 9Z, 11E-conjugated linoleic acid] | – | enhance lipid accumulation | partially reversed | – | – | – | – | – | – | –
3 | CCc1c(-c2ccccc2)c(-c2ccccc2)nn1-c1ccccc1-c1cccc(OCC(=O)O)c1 [BMS309403] | – | – | – | inhibit | did not affect | inhibited | partially inhibited | partially reversed | partially reversed | partially reversed
